Data on 2 compounds can be found in patent US5070191A, “Demethylallosamidin and a process for production thereof” (Ajinomoto Co., Inc., priority 1989, dated 1991).

Bounds are passed on as bounds.

The target in data set [1] is T1, fungi-derived chitinase (chitinase solution from baker's yeast) (Saccharomyces cerevisiae, UniProt P29029).
T1 construct: The cells were removed by centrifugation (0° C., 10 mins., 12,000 g); The resulting supernatant was concentrated to 200 ml by ultrafiltration; host or cells: baker's yeast; concentrated, acid-treated supernatant of shaken cells
T1 sequence (P29029 21-562): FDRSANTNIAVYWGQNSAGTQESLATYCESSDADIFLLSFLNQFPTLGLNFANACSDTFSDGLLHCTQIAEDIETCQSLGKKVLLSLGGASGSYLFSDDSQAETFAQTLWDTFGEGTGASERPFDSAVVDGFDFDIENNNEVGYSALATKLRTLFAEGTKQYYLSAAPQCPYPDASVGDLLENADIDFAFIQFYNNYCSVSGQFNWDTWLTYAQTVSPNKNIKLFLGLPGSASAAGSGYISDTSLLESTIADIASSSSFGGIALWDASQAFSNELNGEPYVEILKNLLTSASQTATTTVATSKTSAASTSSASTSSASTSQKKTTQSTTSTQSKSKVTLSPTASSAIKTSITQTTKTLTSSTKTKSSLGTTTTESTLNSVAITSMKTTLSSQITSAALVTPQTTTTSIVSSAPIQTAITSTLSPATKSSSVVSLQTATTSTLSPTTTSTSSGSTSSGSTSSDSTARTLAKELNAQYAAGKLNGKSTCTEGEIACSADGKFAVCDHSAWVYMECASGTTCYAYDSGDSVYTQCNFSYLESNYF
Put plainly: Determination of chitinase inhibitory activity (3H-chitin hydrolysis). The format is biochemical. Conditions: for Inhibition Rate (%): 37° C., 3 hours, pH 3.0. As to the method:
A Sakaguchi flask of 2 liters was charged with 1 liter of 25 mM MES (Nakarai Chemical Co., Ltd.) buffer containing 0.1% β-mercaptoethanoland 200 g of baker's yeast (Kanegafuchi Chemical Industry Co., Ltd.) followed by shaking at 30° C. at 120 spm for 2 hours. The cells were removed by centrifugation (0° C., 10 mins., 12,000 g). The resulting supernatant was concentrated to 200 ml by ultrafiltration (TOYO ULTRAFILTER UP-20). After concentration, 400 ml of citrate buffer (0.15 M citric acid+0.15 M sodium citrate, pH 3.0) was added to the concentrate. After the formed precipitates were removed by centrifugation (0° C., 10 mins., 12,000 g), the resulting supernatant was concentrated to 40 ml by ultrafiltration. The concentrate was stored at 4° C. and used as the chitinase solution in the assay.
10 ml of 10% acetic acid was slowly added to 0.5 g of chitosan (PFANSTIEHL LABORATORIES INC.), then the mixture was kneaded in a mortar to become gel-like. After standing at room temperature overnight, 45 ml of methanol was added while thoroughly stirring. The mixture was filtered through a gauze and 0.75 ml of ^3 H-labeled acetic anhydride (NET 018A10 ACETIC ANHYDRIDE 5 mCi) was added to the filtrate obtained. The formed agar-like chitin was homogenized with a homogenizer, collected on a glass filter (Whatmann GF/B) and suspended in 10 ml of citrate buffer (pH 3.0). This chitin suspension (2.3 μCi/ml chitin suspension) was used as a substrate for assay.
In an Epfendorf tube, 90 μl of the chitinase solution and 10 μl of the ^3 H-chitin suspension were charged and reacted at 37° C. for 3 hours. In this case, 90 μl of citrate buffer (pH 3.0) was used in place of 90 μl of the enzyme solution as a control sample and reacted in a similar manner. After the reaction, 100 μl of 10% trichloroacetic acid was added and the reaction solution was passed through a glass filter (Whatmann GF/B). After 10 ml of scintillant solution was added to the obtained filtrate, its radioactivity (dpm) was determined. The difference between the determined value and the control sample indicated chitinase activity. The scintillant solution was prepared by dissolving 4 g of Ominiflour (Daiichi Chemical) in 500 ml of toluene and adding 500 ml of Triton X-100 (Nakarai Chemical Co., Ltd.) to the solution.
When allosamidin and demethylallosamidin were added, both were dissolved in 0.1 N acetic acid solution and 10 μl each of the solutions having the respective concentrations was added to the reaction system described above. Also, 10 μl of 0.1 N acetic acid was added to the blank and to the system in which no inhibitor was added, followed by the reaction described above.
The inhibitory activity was calculated according to the equation below: [formula] wherein: A=chitinase activity (dpm) when no inhibitor was added.
B=chitinase activity (dmp) when the inhibitor was added.
In any of the measurements, three series of runs were used and a mean value was determined.

Data set [2] deals with Fusarium nivale ATCC 42308. As to the kind of experiment: Influence on growth of mold (length and branching degree of hyphae). Set-up: Length Hypha: unit not given here. The format is cell-based. The conditions noted are these: after 32 hours; for Branching Degree of Hypha (mean value of branch intervals of hyphae) / Length Hypha: 28° C. As to the method: Demethylallosamidin was added to the culture medium of mold to examine its influence. Firstly, Fusarium nivale ATCC 42308 was precultured in PDA medium (manufactured by Nissui Pharmaceutical Co., Ltd.) to form spores. The spores were suspended in physiological saline. The suspension was filtered through cotton to give a spore suspension free of hyphae. A fixed amount of the resulting suspension was inoculated on a medium supplemented with demethylallosamidin (0.80 μg/ml, 0.16 μg/ml) and on demethylallosamidin-free medium (control), respectively. […] The observation was performed as follows: sampling was made over definite periods of time, microscopic photographs were taken and the length and branching degree of hyphae were determined. The branching degree of hyphae is a mean value of branch intervals of hyphae. In any case, incubation was carried out at 28° C. at 120 strokes/min by charging 1 ml each of medium (0.03% of yeast extract, 0.03% of malt extract; both manufactured by Daigo Nutrient Co., Ltd.) and 0.1% of glucose in a testing tube with a cotton stopper (diameter of 11 mm).

For data set [3], the system named is Mouse ascitic mammary cancer cells FM3A. As to the kind of experiment: Cytotoxicity, mouse ascitic mammary cancer cells FM3A. Type of data set: cell-based. Conditions: 1 mg/ml, 37° C., 4 days. As to the method:
(i) Mouse ascitic mammary cancer cells FM3A were inoculated in 1×10^5 /ml on Dulbecco modified MEM medium supplemented with 10% fetal calf serum and demethylallosamidin was added thereto in a concentration of 1 mg/ml followed by stationary culture at 37° C. for 4 days.

Data set [4] relates to Human leukemia cells K562. As to the kind of experiment: Cytotoxicity, human leukemia cells K562. Type of data set: cell-based. The conditions noted are these: 1 mg/ml, 37° C., 4 days. As to the method: (ii) Human leukemia cells K562 were inoculated in 1×10^5 /ml on FRMI 1640 medium supplemented with 10% fetal calf serum and demethylallosamidin was added thereto in a concentration of 1 mg/ml followed by stationary culture at 37° C. for 4 days.

The target of data set [5] is T1, fungi-derived chitinase (chitinase solution from baker's yeast). The conditions noted are these: background statement; cited from earlier work.
Data set [6] relates to endo-type chitinase derived from insects. Conditions: background statement; cited from earlier work.
Setting [7] is: addition of demethylallosamidin.

`CNC1=NC2C(O)C(OC3OC(CO)C(OC4OC(CO)C(O)C(O)C4NC(C)=O)C(O)C3NC(C)=O)C(CO)C2O1` (single isomer, unassigned) [Demethylallosamidin, demethylallosamidin]: the “inhibitory activity against fungi-derived chitinase (in words)” value in data set [1] is recorded as “potent inhibitory activity”. Further, the “Inhibition Rate (%)” value came out at 61.1% in data set [1] (amount added 0.05 μg); 73.9% in data set [1] (amount added 0.1 μg); 75.2% in data set [1] (amount added 0.2 μg); 84.6% in data set [1] (amount added 0.4 μg); 87.1% in data set [1] (amount added 0.8 μg). In addition, the “inhibitory activity per unit weight relative to allosamidin” value in data set [1] (fungi-derived chitinase, versus allosamidin) is given as at most 100 times. Also, the results for the “Branching Degree of Hypha (mean value of branch intervals of hyphae)” value in data set [2] (0.16 μg/ml) and in data set [2] (0.80 μg/ml) were 72.8 μm and 74.2 μm, respectively. Also, the “Length Hypha” value in data set [2] (0.16 μg/ml) is on record as 364; in data set [2] (0.80 μg/ml), 576. Moreover, in data set [2] (setting [7]), the “branching degree of hyphae (in words)” value was “decreased”. Also, the “length of hyphae (in words)” value in data set [2] (setting [7]) is given as “obviously increased”. Further, the “growth inhibition (microscopic observation)” value is recorded as “no growth inhibition” in data set [3], “no growth inhibition was noted at all” in data set [3] (listed as demethylallosamidin), “no growth inhibition” in data set [4] and “no growth inhibition was noted at all” in data set [4] (listed as demethylallosamidin).

As to `CC(=O)N[C@H]1[C@H](O[C@H]2[C@@H](O)[C@@H](NC(C)=O)[C@H](O[C@H]3[C@H](O)[C@H]4N=C(N(C)C)O[C@H]4[C@@H]3CO)O[C@@H]2CO)O[C@H](CO)[C@@H](O)[C@H]1O` [Allosamidin, allosamidin], the entries for the “Inhibition Rate (%)” value in data set [1] (amount added 1 μg), in data set [1] (amount added 2 μg) and in data set [1] (amount added 4 μg) were 36.0%, 47.6% and 58.5%, respectively. For the same compound, the “inhibitory activity against chitinase derived from fungi (in words, background)” value in data set [5] is recorded as “weakly inhibitory activity”. Further, the “inhibition of endo-type chitinase derived from insects (in words)” value in data set [6] was “strongly inhibits”.
